We go through five compounds from US10221163B2 (priority 2015, dated 2019).

Like-named read-outs stand apart in the source and are kept apart here.

Data set [1] has as its system Pseudomonas aeruginosa efflux− (MB9799), IMP-1. The format is cell-based. The following applies: C, D serine β-lactamase inhibitor closely related to relebactam; for P. aeruginosa expressing IMP-1, efflux − (MB9799) MITC95: concentration restoring susceptibility to imipenem at 2 μg/mL in the presence of a class A. A digest of the protocol: (§1)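 Microbroth MIC tests in PAO1-background strains with fixed imipenem and/or ceftazidime, usually at the CLSI breakpoint, plus fixed class A/C β-lactamase inhibitor against AmpC. MBL inhibitor titrated; concentration restoring susceptibility recorded and compared as fold difference between efflux+ MB9798 and efflux− MB9799.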

The target in the next data set is IMP-1 (Serratia marcescens, UniProt P52699). Description: biochemical. Type of data set: biochemical. The following applies: fluorescence assay, CCF2-FA substrate, 2 pM enzyme, 2 hours at 25° C.; read-out: IMP-1 IC50. The gist of the method:
(§2)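 Enzyme activity was measured by fluorescence using CCF2-FA, a cephalosporin-linked 7-hydroxycoumarin/fluorescein substrate, with inhibitor, metallo-β-lactamase and substrate incubated together for 2 hours at 25° C. IC50 came from a 4-parameter fit of inhibition versus log inhibitor concentration.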

Another data set has as its target NDM-1 (Klebsiella pneumoniae, UniProt C7C422). Description: biochemical. The format is biochemical. The following applies: fluorescence assay, CCF2-FA substrate, 1 pM enzyme, 2 hours at 25° C.; read-out: NDM-1 IC50. A digest of the protocol: as §2
Data set [2] has as its system Pseudomonas aeruginosa efflux+ (MB9798), IMP-1. The format is cell-based. The arrangement: Concentration of metallo-β-lactamase inhibitor which restores susceptibility of efflux + (MB9798) strain to imipenem: unit not given here. The settings on record: C, D serine β-lactamase inhibitor closely related to relebactam; for P. aeruginosa expressing IMP-1, efflux + (MB9798) MITC95: concentration restoring susceptibility to imipenem at 2 μg/mL in the presence of a class A. A digest of the protocol:
as §1

Data set [3] relates to Pseudomonas aeruginosa MB9798 vs MB9799. The gist of the method:
as §1

Another data set addresses VIM-1 (Pseudomonas aeruginosa (strain ATCC 15692 / DSM 22644 / CIP 104116 / JCM 14847 / LMG 12228 / 1C / PRS 101 / PAO1), UniProt A0A0F7KYQ8). As to the kind of experiment: biochemical. The following applies: CCF2-FA substrate, 30 pM enzyme, 2 hours at 25° C. A digest of the protocol: as §2
The test system of data set [4] is Serratia marcescens expressing IMP-1 (CL5741). Type of data set: cell-based. The following applies: for Serratia marcescens expressing IMP-1 (CL5741) MITC95: with imipenem 1 μg/ml, 95% inhibition of bacterial growth; for Serratia marcescens MITC95: IMP-1 strain CL5741, with imipenem 1 μg/ml, 95% inhibition of growth. A digest of the protocol: (§3)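 Growth by absorbance after 22–24 h at 35°C defined the read-out, with imipenem fixed at 1 μg/ml alongside compound. Inocula came from overnight blood-agar colonies at 35°C, resuspended in saline and diluted 1:100 in 1.1×CAMHB.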

For data set [5], the system named is Klebsiella pneumoniae expressing VIM-1 (IHMA599644). The format is cell-based. The settings on record: for Klebsiella pneumoniae expressing VIM-1 (IHMA599644) MITC95: with imipenem 1 μg/ml, 95% inhibition of bacterial growth; for Klebsiella pneumoniae MITC95: VIM-1 strain IHMA599644, with imipenem 1 μg/ml, 95% inhibition of growth. A digest of the protocol:
as §3

The test system of data set [6] is Escherichia coli expressing NDM-1 (CLB30005, CLB30016). The format is cell-based. The following applies: with imipenem 1 μg/ml; for Escherichia coli expressing NDM-1 (CLB30016) MITC95: 95% inhibition of bacterial growth; for Escherichia coli MITC95: NDM-1 strain, 95% inhibition of growth. A digest of the protocol:
as §3

[7] abbreviates: ratio MITC95 PA_9798/MITC95 PA_9799.
[8] abbreviates: fluorescence assay, read-out: VIM-1 IC50.

Chain of NDM-1 (C7C422 whole entry, looked up, species assumed): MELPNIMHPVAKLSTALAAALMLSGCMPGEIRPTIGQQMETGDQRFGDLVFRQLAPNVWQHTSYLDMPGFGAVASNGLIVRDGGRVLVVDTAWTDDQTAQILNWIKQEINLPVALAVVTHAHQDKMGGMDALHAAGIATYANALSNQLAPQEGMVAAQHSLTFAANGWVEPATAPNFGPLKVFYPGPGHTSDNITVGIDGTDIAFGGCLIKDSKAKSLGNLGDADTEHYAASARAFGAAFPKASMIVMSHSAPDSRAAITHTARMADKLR
Chain of IMP-1 (P52699 whole entry, looked up, species assumed): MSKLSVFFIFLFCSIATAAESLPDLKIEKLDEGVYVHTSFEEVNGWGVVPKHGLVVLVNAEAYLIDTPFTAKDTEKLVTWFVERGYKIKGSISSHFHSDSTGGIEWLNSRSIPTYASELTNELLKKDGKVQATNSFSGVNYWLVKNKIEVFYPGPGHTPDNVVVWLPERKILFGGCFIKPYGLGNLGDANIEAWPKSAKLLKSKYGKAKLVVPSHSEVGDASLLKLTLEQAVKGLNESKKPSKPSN

In the case of `CC1(NS(=O)(=O)c2ccc(-c3cccc4sc(N)nc34)c(-c3nnn[nH]3)c2S(N)(=O)=O)CCCNC1` (stereo not drawn) [Example 57, 4-(2-amino-1,3-benzothiazol-4-yl)-N1-(3-methylpiperidin-3-yl)-3-(1H-tetrazol-5-yl)benzene-1,2-disulfonamide], the “P. aeruginosa expressing IMP-1, efflux − (MB9799) MITC95” value in data set [1] came to 3.125 µM. The IC50 (usually the point on the concentration scale where inhibition reaches its midpoint) at IMP-1 stood at 0.554 nM; at NDM-1, 0.0853 nM; at VIM-1 (setting [8]), 0.355 nM. For the same compound, the “P. aeruginosa expressing IMP-1, efflux + (MB9798) MITC95” value in data set [2] stood at 3.125 µM. In data set [3] (setting [7]), the Efflux ratio is reported as 1.00. Besides, the “Serratia marcescens expressing IMP-1 (CL5741) MITC95” value in data set [4] stood at 6.25 µM. Also, the “Klebsiella pneumoniae expressing VIM-1 (IHMA599644) MITC95” value in data set [5] is 3.125 µM. The “Escherichia coli expressing NDM-1 (CLB30016) MITC95” value in data set [6] was found to be 3.125 µM.
As to `Nc1ncccc1-c1ccc(S(=O)(=O)N[C@H]2C[C@@H]2N)c(S(N)(=O)=O)c1-c1nn[nH]n1` [Example 216, N1-((1S)-2-amino-cyclopropyl)-4-(2-aminopyridin-3-yl)-3-(2H-tetrazol-5-yl)benzene-1,2-disulfonamide], in data set [1], the “P. aeruginosa expressing IMP-1, efflux − (MB9799) MITC95” value is 1.563 µM. Moreover, the IC50 on IMP-1 is 1.83 nM; on NDM-1 it was 0.237 nM; on VIM-1 (VIM-1 IC50, fluorescence assay), 0.269 nM. Also, the “P. aeruginosa expressing IMP-1, efflux + (MB9798) MITC95” value in [2] turned out to be 6.25 µM. Besides, the Efflux ratio in [3] (setting [7]) came out at 4.00. Also, in [4], the “Serratia marcescens expressing IMP-1 (CL5741) MITC95” value worked out at 0.7813 µM. Further, in data set [5], the “Klebsiella pneumoniae expressing VIM-1 (IHMA599644) MITC95” value was found to be 3.125 µM. Further, the “Escherichia coli expressing NDM-1 (CLB30016) MITC95” value in [6] worked out at 0.1953 µM.
With `NCCNS(=O)(=O)c1ccc(C2=CC(N)CCC2)c(-c2nn[nH]n2)c1S(N)(=O)=O` (stereo not drawn) [Example 338, 5′-Amino-N4-(2-aminoethyl)-2-(2H-tetrazol-5-yl)-2′,3′,4′,5′-tetrahydro-[1,1′-biphenyl]-3,4-disulfonamide], in [1], the “P. aeruginosa expressing IMP-1, efflux − (MB9799) MITC95” value was 1.563 µM. For the same compound, the IC50 amounted to 91 nM at IMP-1, 37.6 nM on NDM-1 and 6.42 nM at VIM-1 (setting [8]). The “P. aeruginosa expressing IMP-1, efflux + (MB9798) MITC95” value in data set [2] came to 6.25 µM. In [3] (setting [7]), the Efflux ratio is on record as 4.00. Besides, in [4], the “Serratia marcescens MITC95” value worked out at 1.563 µM. In data set [5], the “Klebsiella pneumoniae MITC95” value was determined as 1.563 µM. The “Escherichia coli MITC95” value in [6] is 1.563 µM.
`Nc1nc2c(-c3ccc(S(=O)(=O)N[C@H]4CCCNC4)c(S(N)(=O)=O)c3-c3nnn[nH]3)cccc2s1` [Example 67, 4-(2-amino-1,3-benzothiazol-4-yl)-N1-[(3S)-piperidin-3-yl]-3-(1H-tetrazol-5-yl)benzene-1,2-disulfonamide]: the “P. aeruginosa expressing IMP-1, efflux − (MB9799) MITC95” value in data set [1] was found to be 1.563 µM. For the same compound, the IC50 on IMP-1 was found to be 0.488 nM; on NDM-1, 0.0407 nM; against VIM-1 (VIM-1 IC50, fluorescence assay) it was 0.271 nM. Also, the “P. aeruginosa expressing IMP-1, efflux + (MB9798) MITC95” value in [2] was 1.563 µM. For the same compound, the Efflux ratio in [3] (setting [7]) was determined as 1.00. For the same compound, the “Serratia marcescens expressing IMP-1 (CL5741) MITC95” value in data set [4] turned out to be 1.563 µM. The “Klebsiella pneumoniae expressing VIM-1 (IHMA599644) MITC95” value in [5] is 3.125 µM. The “Escherichia coli expressing NDM-1 (CLB30016) MITC95” value in [6] amounted to 1.563 µM.
On to `NCC(CN)NS(=O)(=O)c1ccc(-c2cccc3ccc(N)nc23)c(-c2nn[nH]n2)c1S(N)(=O)=O` [Example 430], for which the “Concentration of metallo-β-lactamase inhibitor which restores susceptibility of efflux − (MB9799) strain to imipenem” value in data set [1] (efflux− MB9799, imipenem at 2 μg/mL, in the presence of a class A) came out at 1.563. The values for the IC50 on IMP-1, at NDM-1 and on VIM-1 (setting [8]) were 0.102 nM, 0.0325 nM and 0.103 nM, respectively. Besides, the “Concentration of metallo-β-lactamase inhibitor which restores susceptibility of efflux + (MB9798) strain to imipenem” value in data set [2] (efflux+ MB9798, imipenem at 2 μg/mL, in the presence of a class A) is given as 1.563. The Efflux ratio in data set [3] (fold difference between efflux+ (MB9798) and efflux− (MB9799) strains, imipenem at 2 μg/mL) is on record as 1.00. In data set [4], the “Serratia marcescens MITC95” value was 1.563 µM. In addition, in data set [5], the “Klebsiella pneumoniae MITC95” value came to 1.563 µM. Moreover, in data set [6], the “Escherichia coli MITC95” value came to 1.172 µM.
